According to ChEMBL document CHEMBL1201862, “PubChem BioAssay data set” (2004):
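All cell lines were grown in 96-well plates and treated with compound for 48 hours. GI50: concentration for 50% inhibition of growth.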 Calls of active or inactive are those of the source. Cut-off read from the data, not from the text of the source: active = GI50 up to about 1.1 µM and inactive = higher.

Key:
Assay in all cases: NCI tumour cell line growth inhibition, 48 h
LOX IMVI = test system: LOX IMVI
PC-3 = test system: PC-3
BT-549 = test system: BT-549
OVCAR-5 = test system: OVCAR-5
U-251 = test system: U-251
SF-539 = test system: SF-539
DU-145 = test system: DU-145
CCRF-CEM = test system: CCRF-CEM
SN12C = test system: SN12C
OVCAR-3 = test system: OVCAR-3
HT-29 = test system: HT-29
NCI-H226 = test system: NCI-H226
SK-OV-3 = test system: SK-OV-3
Malme-3M = test system: Malme-3M
A498 = test system: A498
K562 = test system: K562
HCT-116 = test system: HCT-116
A549 = test system: A549
COLO 205 = test system: COLO 205
HOP-92 = test system: HOP-92
MCF7 = test system: MCF7
MOLT-4 = test system: MOLT-4
IGROV-1 = test system: IGROV-1
NCI-H460 = test system: NCI-H460
SK-MEL-2 = test system: SK-MEL-2
EKVX = test system: EKVX
SF-295 = test system: SF-295
KM12 = test system: KM12
ACHN = test system: ACHN
NCI/ADR-RES = test system: NCI/ADR-RES
RXF 393 = test system: RXF 393
NCI-H522 = test system: NCI-H522
SW-620 = test system: SW-620
SNB-75 = test system: SNB-75
HCT-15 = test system: HCT-15
OVCAR-4 = test system: OVCAR-4
HL-60 = test system: HL-60
T47D = test system: T47D
SK-MEL-28 = test system: SK-MEL-28
Hs-578T = test system: Hs-578T
UO-31 = test system: UO-31
MDA-N = test system: MDA-N
CAKI-1 = test system: CAKI-1
TK-10 = test system: TK-10
SNB-19 = test system: SNB-19
M14 = test system: M14
UACC-257 = test system: UACC-257
SR = test system: SR
OVCAR-8 = test system: OVCAR-8
786-0 = test system: 786-0
SK-MEL-5 = test system: SK-MEL-5
HOP-62 = test system: HOP-62
RPMI-8226 = test system: RPMI-8226
SF-268 = test system: SF-268
NCI-H23 = test system: NCI-H23
HCC 2998 = test system: HCC 2998
MDA-MB-231 = test system: MDA-MB-231
MDA-MB-435 = test system: MDA-MB-435
UACC-62 = test system: UACC-62

CO/N=C(\C(=O)[N-]n1cn[n+](CC(=O)OC(C)(C)C)c1)c1csc(NC(c2ccccc2)(c2ccccc2)c2ccccc2)n1
GI50 (LOX IMVI): > 10 µM (inactive)
GI50 (PC-3): > 10 µM (inactive)
GI50 (BT-549): > 10 µM (inactive)
GI50 (OVCAR-5): > 10 µM (inactive)
GI50 (U-251): > 10 µM (inactive)
GI50 (SF-539): > 10 µM (inactive)
GI50 (DU-145): > 10 µM (inactive)
GI50 (CCRF-CEM): > 10 µM (inactive)
GI50 (SN12C): > 10 µM (inactive)
GI50 (OVCAR-3): > 10 µM (inactive)
GI50 (HT-29): > 10 µM (inactive)
GI50 (NCI-H226): > 10 µM (inactive)
GI50 (SK-OV-3): > 10 µM (inactive)
GI50 (Malme-3M): > 10 µM (inactive)
GI50 (A498): > 10 µM (inactive)
GI50 (K562): > 10 µM (inactive)
GI50 (HCT-116): > 10 µM (inactive)
GI50 (A549): > 10 µM (inactive)
GI50 (COLO 205): > 10 µM (inactive)
GI50 (HOP-92): > 10 µM (inactive)
GI50 (MCF7): > 10 µM (inactive)
GI50 (MOLT-4): > 10 µM (inactive)
GI50 (IGROV-1): > 10 µM (inactive)
GI50 (NCI-H460): > 10 µM (inactive)
GI50 (SK-MEL-2): > 10 µM (inactive)
GI50 (EKVX): > 10 µM (inactive)
GI50 (SF-295): > 10 µM (inactive)
GI50 (KM12): > 10 µM (inactive)
GI50 (ACHN): > 10 µM (inactive)
GI50 (NCI/ADR-RES): > 10 µM (inactive)
GI50 (RXF 393): > 10 µM (inactive)
GI50 (NCI-H522): > 10 µM (inactive)
GI50 (SW-620): > 10 µM (inactive)
GI50 (SNB-75): > 10 µM (inactive)
GI50 (HCT-15): > 10 µM
GI50 (OVCAR-4): > 10 µM (inactive)
GI50 (HL-60): > 10 µM (inactive)
GI50 (T47D): > 10 µM (inactive)
GI50 (SK-MEL-28): > 10 µM (inactive)
GI50 (Hs-578T): > 10 µM (inactive)
GI50 (UO-31): > 10 µM (inactive)
GI50 (MDA-N): > 10 µM (inactive)
GI50 (CAKI-1): > 10 µM (inactive)
GI50 (TK-10): > 10 µM (inactive)
GI50 (SNB-19): > 10 µM (inactive)
GI50 (M14): > 10 µM (inactive)
GI50 (UACC-257): > 10 µM (inactive)
GI50 (SR): > 10 µM (inactive)
GI50 (OVCAR-8): > 10 µM (inactive)
GI50 (786-0): > 10 µM (inactive)
GI50 (SK-MEL-5): > 10 µM (inactive)
GI50 (HOP-62): > 10 µM (inactive)
GI50 (RPMI-8226): > 10 µM (inactive)
GI50 (SF-268): > 10 µM (inactive)
GI50 (NCI-H23): > 10 µM (inactive)
GI50 (HCC 2998): > 10 µM (inactive)

O=[N+]([O-])c1cccc2nc3ccccc3c(NCCNCCO)c12
GI50 (LOX IMVI): 0.00413 µM (active)
GI50 (PC-3): 0.00245 µM (active)
GI50 (BT-549): 0.00542 µM (active)
GI50 (OVCAR-5): 0.0109 µM (active)
GI50 (U-251): 0.0118 µM (active)
GI50 (SF-539): 0.0326 µM (active)
GI50 (DU-145): 0.00288 µM (active)
GI50 (CCRF-CEM): 0.0158 µM (active)
GI50 (SN12C): 0.0122 µM (active)
GI50 (OVCAR-3): 0.00558 µM (active)
GI50 (HT-29): 0.00361 µM (active)
GI50 (NCI-H226): 0.0166 µM (active)
GI50 (SK-OV-3): 0.0374 µM (active)
GI50 (Malme-3M): 0.00877 µM (active)
GI50 (A498): 0.0121 µM (active)
GI50 (K562): 0.00427 µM (active)
GI50 (HCT-116): 0.0197 µM (active)
GI50 (A549): 0.00337 µM (active)
GI50 (COLO 205): 0.00176 µM (active)
GI50 (HOP-92): 0.00365 µM (active)
GI50 (MCF7): 0.001 µM (active)
GI50 (MOLT-4): 0.00402 µM (active)
GI50 (IGROV-1): 0.00198 µM (active)
GI50 (NCI-H460): 0.00184 µM (active)
GI50 (SK-MEL-2): 0.00281 µM (active)
GI50 (EKVX): 0.00853 µM (active)
GI50 (SF-295): 0.00425 µM (active)
GI50 (KM12): 0.0122 µM (active)
GI50 (ACHN): 0.00875 µM (active)
GI50 (NCI/ADR-RES): 0.248 µM (active)
GI50 (RXF 393): 0.00513 µM (active)
GI50 (NCI-H522): 0.00109 µM (active)
GI50 (SW-620): 0.00899 µM (active)
GI50 (SNB-75): 0.0188 µM (active)
GI50 (HCT-15): 0.0405 µM
GI50 (OVCAR-4): 0.00335 µM (active)
GI50 (HL-60): 0.0177 µM (active)
GI50 (T47D): 0.00819 µM (active)
GI50 (SK-MEL-28): 0.047 µM (active)
GI50 (Hs-578T): 0.0251 µM (active)
GI50 (UO-31): 0.07 µM (active)
GI50 (CAKI-1): 0.0178 µM (active)
GI50 (MDA-MB-231): 0.017 µM (active)
GI50 (MDA-MB-435): 0.011 µM (active)
GI50 (TK-10): 0.0385 µM (active)
GI50 (SNB-19): 0.0349 µM (active)
GI50 (M14): 0.011 µM (active)
GI50 (UACC-257): 0.0154 µM (active)
GI50 (SR): 0.00112 µM (active)
GI50 (OVCAR-8): 0.00733 µM (active)
GI50 (786-0): 0.00348 µM (active)
GI50 (SK-MEL-5): 0.00153 µM (active)
GI50 (HOP-62): 0.0169 µM (active)
GI50 (RPMI-8226): 0.00383 µM (active)
GI50 (SF-268): 0.00134 µM (active)
GI50 (NCI-H23): 0.00146 µM (active)
GI50 (UACC-62): 0.01 µM (active)
GI50 (HCC 2998): 0.00217 µM (active)

Cc1ccc([N+](=O)[O-])cc1S(=O)(=O)Nc1ccc(C2=NN(S(=O)(=O)c3cc([N+](=O)[O-])ccc3C)C(c3ccco3)C2)cc1 (stereo unspecified)
GI50 (LOX IMVI): 39 µM (inactive)
GI50 (PC-3): 45.5 µM (inactive)
GI50 (BT-549): 25.8 µM (inactive)
GI50 (OVCAR-5): > 100 µM (inactive)
GI50 (SF-539): 53 µM (inactive)
GI50 (DU-145): 45 µM (inactive)
GI50 (CCRF-CEM): 27.6 µM (inactive)
GI50 (SN12C): 44.8 µM (inactive)
GI50 (OVCAR-3): 37.1 µM (inactive)
GI50 (HT-29): 54 µM (inactive)
GI50 (NCI-H226): 38.9 µM (inactive)
GI50 (SK-OV-3): > 100 µM (inactive)
GI50 (Malme-3M): 47.2 µM (inactive)
GI50 (K562): 31 µM (inactive)
GI50 (HCT-116): 31.9 µM (inactive)
GI50 (COLO 205): 39.4 µM (inactive)
GI50 (HOP-92): 16.7 µM (inactive)
GI50 (MCF7): 32.1 µM (inactive)
GI50 (MOLT-4): 28.2 µM (inactive)
GI50 (IGROV-1): 29.6 µM (inactive)
GI50 (SK-MEL-2): 38 µM (inactive)
GI50 (EKVX): 29.2 µM (inactive)
GI50 (SF-295): 32.8 µM (inactive)
GI50 (KM12): 39.4 µM (inactive)
GI50 (ACHN): 36.6 µM (inactive)
GI50 (NCI/ADR-RES): 40.3 µM (inactive)
GI50 (RXF 393): 26.8 µM (inactive)
GI50 (NCI-H522): 45 µM (inactive)
GI50 (SW-620): > 100 µM (inactive)
GI50 (SNB-75): > 100 µM (inactive)
GI50 (HCT-15): 41.7 µM
GI50 (OVCAR-4): 74.8 µM (inactive)
GI50 (HL-60): 38.8 µM (inactive)
GI50 (T47D): 28.6 µM (inactive)
GI50 (SK-MEL-28): > 100 µM (inactive)
GI50 (Hs-578T): > 100 µM (inactive)
GI50 (UO-31): 41.1 µM (inactive)
GI50 (MDA-N): 43.9 µM (inactive)
GI50 (CAKI-1): 45.8 µM (inactive)
GI50 (MDA-MB-435): 54.7 µM (inactive)
GI50 (SNB-19): 46.1 µM (inactive)
GI50 (M14): 42 µM (inactive)
GI50 (UACC-257): 11.1 µM (inactive)
GI50 (SR): 33.5 µM (inactive)
GI50 (OVCAR-8): 44.5 µM (inactive)
GI50 (786-0): 48.8 µM (inactive)
GI50 (SK-MEL-5): 30.3 µM (inactive)
GI50 (HOP-62): 45.2 µM (inactive)
GI50 (RPMI-8226): 25.8 µM (inactive)
GI50 (SF-268): 53.3 µM (inactive)
GI50 (NCI-H23): 37.6 µM (inactive)
GI50 (UACC-62): 21.8 µM (inactive)
